Converted amounts (≈) assume the structure as drawn. “And” between values parts separate entries of the source, which are not always exact repeats. Identical values can stand only once.
Tests used:
MOLP-8 = assay: Induction of apoptosis in human MOLP8 cells using luminescent caspase-3/7 as substrate incubated for 2 hrs by Caspase-Glo 3/7 assay; assay type: functional, cell-based; details: MOLP-8, 2 h
[1] = target: Induced myeloid leukemia cell differentiation protein Mcl-1 (Homo sapiens, UniProt Q07820); assay: Displacement of Cy5-labeled BIM BH3 peptide (H3N-(C/Cy5Mal)-WIAQELRRIGDEFN-OH) from MCL-1 (unknown origin) assessed as inhibition constant incubated for 60 mins by HTRF assay
Chain of Induced myeloid leukemia cell differentiation protein Mcl-1 (Q07820 whole entry): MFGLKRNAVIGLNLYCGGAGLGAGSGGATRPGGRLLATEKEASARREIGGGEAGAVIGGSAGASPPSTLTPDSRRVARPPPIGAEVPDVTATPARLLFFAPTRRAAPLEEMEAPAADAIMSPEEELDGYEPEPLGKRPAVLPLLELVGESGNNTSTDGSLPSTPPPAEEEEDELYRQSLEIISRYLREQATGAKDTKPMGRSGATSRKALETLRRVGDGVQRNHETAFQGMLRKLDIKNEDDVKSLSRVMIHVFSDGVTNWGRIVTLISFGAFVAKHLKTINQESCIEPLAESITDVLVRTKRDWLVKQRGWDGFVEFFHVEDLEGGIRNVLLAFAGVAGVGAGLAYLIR

[2] = Solubility of compound in pH 7 buffer incubated for 3 days by LC-MS/MS analysis; assay type: physicochemical; details: time 3 day
[3] = Ratio of AC50 for induction of apoptosis in human MOLP8 cells using luminescent caspase-3/7 as substrate to Ki for displacement of Cy5-labeled BIM BH3 peptide (H3N-(C/Cy5Mal)-WIAQELRRIGDEFN-OH) from MCL-1 (unknown origin) assessed as inhibition constant
[4] = Solubility of compound in pH 2 buffer incubated for 3 days by LC-MS/MS analysis; assay type: physicochemical; details: time 3 day
KMS-12-PE [5] = assay: Induction of apoptosis in human KMS-12-PE cells; assay type: functional, cell-based
KMS-12-PE [6] = assay: Induction of apoptosis in MCL-1 knockout human KMS-12-PE cells overexpressing BFL-1; assay type: functional, cell-based
Cytochrome P450 2D6 = Cytochrome P450 2D6 (Homo sapiens, UniProt P10635); assay: Inhibition of recombinant human CYP2D6 by fluorescence microplate reader assay; assay type: ADME
Chain of Cytochrome P450 2D6 (P10635 whole entry): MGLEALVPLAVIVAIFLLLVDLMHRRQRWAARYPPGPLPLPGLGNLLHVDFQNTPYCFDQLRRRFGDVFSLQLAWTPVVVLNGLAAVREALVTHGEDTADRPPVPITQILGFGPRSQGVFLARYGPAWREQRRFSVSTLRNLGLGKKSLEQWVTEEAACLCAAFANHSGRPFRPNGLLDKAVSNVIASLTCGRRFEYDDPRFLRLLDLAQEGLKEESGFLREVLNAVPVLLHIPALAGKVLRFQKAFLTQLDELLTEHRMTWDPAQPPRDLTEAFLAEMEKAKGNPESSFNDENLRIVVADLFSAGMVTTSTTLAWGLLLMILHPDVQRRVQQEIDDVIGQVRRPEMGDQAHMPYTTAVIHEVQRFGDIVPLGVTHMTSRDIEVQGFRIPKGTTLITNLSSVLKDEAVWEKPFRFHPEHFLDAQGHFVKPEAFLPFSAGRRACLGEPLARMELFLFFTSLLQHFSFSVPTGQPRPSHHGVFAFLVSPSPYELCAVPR

[7] = Cardiotoxicity in human iPSC-CM assessed as calcium transients at 10 uM by CTCM assay; assay type: toxicity, cell-based
[8] = Intrinsic clearance in human liver microsomes; assay type: ADME, Microsome; details: read-out: CLH
Cytochrome P450 3A4 = Cytochrome P450 3A4 (Homo sapiens, UniProt P08684); assay: Inhibition of recombinant human CYP3A4 by fluorescence microplate reader assay; assay type: ADME
Chain of Cytochrome P450 3A4 (P08684 whole entry): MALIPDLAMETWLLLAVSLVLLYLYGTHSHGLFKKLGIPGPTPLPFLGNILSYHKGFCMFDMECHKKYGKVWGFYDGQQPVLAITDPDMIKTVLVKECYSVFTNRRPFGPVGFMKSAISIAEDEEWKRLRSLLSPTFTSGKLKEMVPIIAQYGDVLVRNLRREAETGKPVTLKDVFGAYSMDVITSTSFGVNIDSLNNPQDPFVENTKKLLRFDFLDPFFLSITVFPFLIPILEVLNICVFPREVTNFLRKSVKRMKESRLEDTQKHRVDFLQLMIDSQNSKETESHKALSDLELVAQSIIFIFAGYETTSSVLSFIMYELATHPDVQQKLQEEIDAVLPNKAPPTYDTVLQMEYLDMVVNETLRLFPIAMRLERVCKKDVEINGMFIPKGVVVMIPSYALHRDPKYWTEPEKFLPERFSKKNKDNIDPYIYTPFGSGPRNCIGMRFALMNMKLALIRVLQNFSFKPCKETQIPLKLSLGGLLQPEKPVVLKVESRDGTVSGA

[9] = Cardiotoxicity in human iPSC-CM assessed as calcium transients at 0.1 uM by CTCM assay; assay type: toxicity, cell-based
Cytochrome P450 2C8 = target: T1, Cytochrome P450 2C8 (Homo sapiens, UniProt P10632); assay: Inhibition of recombinant human CYP2C8 by fluorescence microplate reader assay; assay type: ADME
T1 sequence (P10632 whole entry): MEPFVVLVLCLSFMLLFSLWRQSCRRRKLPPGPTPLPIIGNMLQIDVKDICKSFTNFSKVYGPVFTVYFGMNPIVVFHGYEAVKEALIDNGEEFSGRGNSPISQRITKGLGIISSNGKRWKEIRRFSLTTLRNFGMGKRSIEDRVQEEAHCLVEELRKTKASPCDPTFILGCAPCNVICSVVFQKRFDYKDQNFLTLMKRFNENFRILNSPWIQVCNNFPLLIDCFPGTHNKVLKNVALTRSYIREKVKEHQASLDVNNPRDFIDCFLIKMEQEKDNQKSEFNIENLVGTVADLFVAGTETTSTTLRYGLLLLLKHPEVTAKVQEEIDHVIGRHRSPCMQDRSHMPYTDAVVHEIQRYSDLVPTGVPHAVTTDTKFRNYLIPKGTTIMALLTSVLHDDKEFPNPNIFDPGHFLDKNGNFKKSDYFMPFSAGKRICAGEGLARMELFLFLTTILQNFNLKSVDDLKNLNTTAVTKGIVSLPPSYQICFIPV

Cytochrome P450 1A2 = target: T2, Cytochrome P450 1A2 (Homo sapiens, UniProt P05177); assay: Inhibition of recombinant human CYP1A2 by fluorescence microplate reader assay; assay type: ADME
T2 sequence (P05177 whole entry): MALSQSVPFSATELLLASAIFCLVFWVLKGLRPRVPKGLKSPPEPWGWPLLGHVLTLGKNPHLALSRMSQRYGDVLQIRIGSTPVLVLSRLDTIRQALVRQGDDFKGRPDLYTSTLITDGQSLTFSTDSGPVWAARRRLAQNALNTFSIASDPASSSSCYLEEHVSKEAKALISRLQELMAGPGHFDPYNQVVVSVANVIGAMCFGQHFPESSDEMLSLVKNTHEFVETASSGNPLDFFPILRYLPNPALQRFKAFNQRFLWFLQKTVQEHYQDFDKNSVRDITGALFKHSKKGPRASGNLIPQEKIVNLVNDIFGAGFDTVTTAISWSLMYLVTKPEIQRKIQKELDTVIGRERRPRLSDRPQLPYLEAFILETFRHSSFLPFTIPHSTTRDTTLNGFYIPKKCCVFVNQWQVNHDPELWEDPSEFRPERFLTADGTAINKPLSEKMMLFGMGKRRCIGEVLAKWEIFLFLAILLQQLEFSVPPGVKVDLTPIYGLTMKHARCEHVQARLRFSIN

[10] = Chromatographic hydrophobicity index, log D of the compound at pH 7.4 by UPLC-TOF analysis; assay type: physicochemical; details: buffer
Cytochrome P450 2C9 = Cytochrome P450 2C9 (Homo sapiens, UniProt P11712); assay: Inhibition of recombinant human CYP2C9 by fluorescence microplate reader assay; assay type: ADME
Chain of Cytochrome P450 2C9 (P11712 whole entry): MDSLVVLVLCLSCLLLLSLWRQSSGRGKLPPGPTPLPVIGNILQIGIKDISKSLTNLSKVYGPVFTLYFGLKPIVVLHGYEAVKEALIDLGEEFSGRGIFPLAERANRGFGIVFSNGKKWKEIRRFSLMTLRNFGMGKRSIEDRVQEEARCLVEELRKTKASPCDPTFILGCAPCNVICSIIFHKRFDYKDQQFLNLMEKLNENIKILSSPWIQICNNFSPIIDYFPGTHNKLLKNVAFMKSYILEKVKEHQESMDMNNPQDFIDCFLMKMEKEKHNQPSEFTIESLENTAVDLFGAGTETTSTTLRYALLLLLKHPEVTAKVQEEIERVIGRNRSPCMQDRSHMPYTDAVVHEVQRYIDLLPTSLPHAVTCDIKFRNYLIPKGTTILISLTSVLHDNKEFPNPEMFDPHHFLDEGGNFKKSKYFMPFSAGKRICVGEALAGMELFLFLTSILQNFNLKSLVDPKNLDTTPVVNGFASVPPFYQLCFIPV

[11] = Intrinsic clearance in mouse liver microsomes; assay type: ADME, Microsome; details: read-out: CLH
[12] = Cardiotoxicity in human iPSC-CM assessed as calcium transients at 1 uM by CTCM assay; assay type: toxicity, cell-based
[13] = Cardiotoxicity in human iPSC-CM assessed as calcium transients at 0.3 uM by CTCM assay; assay type: toxicity, cell-based
[14] = Cardiotoxicity in human iPSC-CM assessed as calcium transients at 3 uM by CTCM assay; assay type: toxicity, cell-based
Cytochrome P450 2C19 = Cytochrome P450 2C19 (Homo sapiens, UniProt P33261); assay: Inhibition of recombinant human CYP2C19 by fluorescence microplate reader assay; assay type: ADME
Chain of Cytochrome P450 2C19 (P33261 whole entry): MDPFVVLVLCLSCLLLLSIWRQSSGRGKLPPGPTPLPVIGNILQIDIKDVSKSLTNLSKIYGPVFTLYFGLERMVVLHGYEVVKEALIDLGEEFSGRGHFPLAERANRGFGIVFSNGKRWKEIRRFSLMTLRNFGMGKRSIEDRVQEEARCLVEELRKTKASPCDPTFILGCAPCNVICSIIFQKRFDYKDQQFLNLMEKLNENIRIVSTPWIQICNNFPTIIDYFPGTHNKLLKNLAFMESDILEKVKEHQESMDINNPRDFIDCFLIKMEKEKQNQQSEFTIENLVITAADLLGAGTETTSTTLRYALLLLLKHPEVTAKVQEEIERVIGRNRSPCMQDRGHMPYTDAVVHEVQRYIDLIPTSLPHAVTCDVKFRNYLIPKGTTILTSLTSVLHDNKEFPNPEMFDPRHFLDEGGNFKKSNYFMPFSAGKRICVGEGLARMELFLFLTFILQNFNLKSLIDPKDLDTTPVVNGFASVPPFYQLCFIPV

[15] = target: Voltage-gated inwardly rectifying potassium channel KCNH2 (Homo sapiens, UniProt Q12809); assay: […] from human ERG by PatchXpress assay; assay type: toxicity
Chain of Voltage-gated inwardly rectifying potassium channel KCNH2 (Q12809 whole entry): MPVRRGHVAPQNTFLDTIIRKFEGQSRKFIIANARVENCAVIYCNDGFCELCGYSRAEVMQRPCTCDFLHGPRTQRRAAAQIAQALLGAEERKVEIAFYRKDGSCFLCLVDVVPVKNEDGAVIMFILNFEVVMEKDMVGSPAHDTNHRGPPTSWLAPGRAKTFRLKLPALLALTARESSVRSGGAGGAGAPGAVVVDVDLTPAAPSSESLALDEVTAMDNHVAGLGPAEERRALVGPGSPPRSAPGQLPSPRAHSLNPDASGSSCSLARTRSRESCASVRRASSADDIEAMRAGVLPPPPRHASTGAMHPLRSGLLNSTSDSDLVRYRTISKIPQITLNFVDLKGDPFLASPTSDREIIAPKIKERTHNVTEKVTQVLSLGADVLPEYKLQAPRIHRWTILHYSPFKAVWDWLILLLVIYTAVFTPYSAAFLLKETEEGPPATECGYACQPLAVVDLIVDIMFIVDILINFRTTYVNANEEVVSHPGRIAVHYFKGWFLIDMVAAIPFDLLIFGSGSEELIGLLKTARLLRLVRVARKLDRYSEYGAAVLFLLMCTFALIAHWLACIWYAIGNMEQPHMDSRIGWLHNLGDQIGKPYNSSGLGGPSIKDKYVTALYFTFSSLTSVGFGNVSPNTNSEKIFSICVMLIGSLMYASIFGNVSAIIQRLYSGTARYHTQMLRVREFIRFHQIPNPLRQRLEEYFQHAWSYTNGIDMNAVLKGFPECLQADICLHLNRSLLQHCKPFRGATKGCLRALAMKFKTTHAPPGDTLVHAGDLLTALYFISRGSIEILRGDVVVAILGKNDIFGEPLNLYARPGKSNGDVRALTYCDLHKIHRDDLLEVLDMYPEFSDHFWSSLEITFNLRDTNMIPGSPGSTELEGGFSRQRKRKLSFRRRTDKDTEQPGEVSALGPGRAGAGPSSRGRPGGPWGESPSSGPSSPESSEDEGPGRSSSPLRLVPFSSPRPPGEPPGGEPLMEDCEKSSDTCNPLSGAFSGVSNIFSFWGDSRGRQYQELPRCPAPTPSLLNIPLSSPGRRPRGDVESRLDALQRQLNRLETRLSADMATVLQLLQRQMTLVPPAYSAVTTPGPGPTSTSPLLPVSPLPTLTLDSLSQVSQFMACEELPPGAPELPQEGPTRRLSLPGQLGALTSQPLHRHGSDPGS

Row | Ki [1] [nM] | solubility at 72 h [2] [µM] | solubility at 72 h [4] [µM] | SMILES | AC50 (MOLP-8) [nM] | Ratio [3] | other results
1 | 0.02 | 520 (≈ 388 µg/mL) | < 0.23 | COCCOCCn1c(C(=O)O)c2c3ccc(Cl)c(c31)-c1c(cnn1C)CSCc1cc(n(C)n1)CCc1cc(c3ccc(F)cc3c1)OCCC2 | 52 | 2600 | 
2 | 0.013 | 460 (≈ 350 µg/mL) | < 0.29 | COCCOCCc1nn(C)c2c1CSCc1cc(n(C)n1)CCc1cc(c3ccc(F)cc3c1)OCCCc1c(C(=O)O)n(C)c3c-2c(Cl)ccc13 | 16 | 1230 | 
3 | 0.047 |  |  | Cn1nc2cc1CCc1cc(c3ccc(F)cc3c1)OCCCc1c(C(=O)O)[nH]c3c(c(Cl)ccc13)-c1c(cnn1C)CSC2 | 202 | 4300 | 
4 | 0.04 | 9.7 (≈ 6.52 µg/mL) | < 0.27 | Cc1nn(C)c2c1CSCc1cc(n(C)n1)CSc1cc(c3ccccc3c1)OCCCc1c(C(=O)O)n(C)c3c-2c(Cl)ccc13 | 54 | 1350 | 
5 | 0.018 | 580 (≈ 433 µg/mL) | < 0.02 | COCCOCc1nn(C)c2c1CSCc1cc(n(C)n1)CCc1cc(c3ccc(F)cc3c1)OCCCc1c(C(=O)O)n(C)c3c-2c(Cl)ccc13 | 14 | 777 | AC50 (KMS-12-PE [5]): 111 nM; AC50 (KMS-12-PE [6]): > 30 µM; IC50 (Cytochrome P450 2D6): > 20 µM; Activity [7]: Non-Toxic; microsomal CLint [8]: 48 µL/min/mg; IC50 (Cytochrome P450 3A4): > 20 µM; Activity [9]: Non-Toxic; IC50 (Cytochrome P450 2C8): 9.6 µM; IC50 (Cytochrome P450 1A2): > 20 µM; chromatographic logD [10]: 2.49; IC50 (Cytochrome P450 2C9): 19 µM; microsomal CLint [11]: 157 µL/min/mg; Activity [12]: Non-Toxic; Activity [13]: Non-Toxic; Activity [14]: Non-Toxic; IC50 (Cytochrome P450 2C19): > 20 µM; IC50 [15]: > 30 µM
6 | 0.02 | 550 (≈ 417 µg/mL) | 580 (≈ 439 µg/mL) | Cn1nc2cc1CCc1cc(c3ccc(F)cc3c1)OCCCc1c(C(=O)O)n(CCN3CCOCC3)c3c(c(Cl)ccc13)-c1c(cnn1C)CSC2 | 76 | 3800 | AC50 (KMS-12-PE [5]): 407 nM; AC50 (KMS-12-PE [6]): > 30 µM; IC50 (Cytochrome P450 2D6): 10.5 µM; Activity [7]: Non-Toxic; microsomal CLint [8]: 43 µL/min/mg; IC50 (Cytochrome P450 3A4): 9.5 µM; Activity [9]: Non-Toxic; IC50 (Cytochrome P450 2C8): 5.6 µM; IC50 (Cytochrome P450 1A2): > 20 µM; chromatographic logD [10]: 2.53; IC50 (Cytochrome P450 2C9): > 20 µM; microsomal CLint [11]: 24 µL/min/mg; Activity [12]: Non-Toxic; Activity [13]: Non-Toxic; Activity [14]: Non-Toxic; IC50 (Cytochrome P450 2C19): > 20 µM; IC50 [15]: > 30 µM
7 |  |  |  | COCCOCCn1nc(C)c2c1CSCc1cc(n(C)n1)CCc1cc(c3ccc(F)cc3c1)OCCCn1c(C(=O)O)c(C)c3c-2c(Cl)ccc31 | 12 |  | 
8 |  | < 0.49 | < 0.55 | Cn1nc2cc1CSc1cc(c3ccccc3c1)OCCCc1c(C(=O)O)n(C)c3c(c(Cl)ccc13)-c1c(cnn1C)CSC2 |  | 738 and >900 | 
9 | 0.032 | 210 | < 0.04 | Cc1nn(C)c2c1CSCc1cc(n(C)n1)CCc1cc(c3ccccc3c1)OCCCc1c(C(=O)[O-])n(C)c3c-2c(Cl)ccc13.[Na+] | 45 | 1406 | 
10 | 0.034 |  |  | CN(C)CCn1c(C(=O)O)c2c3ccc(Cl)c(c31)-c1c(cnn1C)CSCc1cc(n(C)n1)CCc1cc(c3ccc(F)cc3c1)OCCC2 | 120 | 3530 | 
11 | 0.041 | 550 | < 0.03 | Cc1nn(C)c2c1CSCc1cc(n(C)n1)CCc1cc(c3ccc(F)cc3c1)OCCCc1c(C(=O)[O-])n(C)c3c-2c(Cl)ccc13.[Na+] | 10 | 243 | 
12 | 0.023 | 590 (≈ 430 µg/mL) | < 0.06 | COCCOCc1nn(C)c2c1CSCc1cc(n(C)n1)CCc1cc(c3ccccc3c1)OCCCc1c(C(=O)O)n(C)c3c-2c(Cl)ccc13 | 43 | 1870 | 
13 | 0.022 | 10.4 (≈ 7.3 µg/mL) | < 0.02 | COCCn1c(C(=O)O)c2c3ccc(Cl)c(c31)-c1c(cnn1C)CSCc1cc(n(C)n1)CCc1cc(c3ccc(F)cc3c1)OCCC2 | 43 | 1954 | 
